According to US6881740B1, “Pharmaceutical agents” (Monash University, priority 1998, dated 2005):

Columns and labels:
[1] = tested on: murine neocortical neurones; test: NMDA-induced toxicity in neuronal cultures (MTT assay); format: cell-based; conditions: Mus musculus, NMDA 600 μM, 1 h, compound added 30 min prior, cultures at 8 days in vitro, read-out: EC50 for inhibition of NMDA-induced toxicity
Method: Assay for NMDA-induced Toxicity in Neuronal Cultures
Neuronal cell death was assessed using a 3-(4,5-dimethylthiazol-2-yl)-2,5-diphenyltetrazoliurn bromide (MTT) assay in which NMDA-induced cellular changes are reflected as altered mitochondrial activity (Ankarcrona et al., 1995), as estimated by the formation of a formazan dye, which is measured spectrophotometrically. The procedure employed is essentially that of Roehlm et al. (1991) with minor modifications as previously described elsewhere in work from our laboratories Larm et al. (1996).
Primary cultures of murine neocortical neurones were established as described elsewhere (Larm et al., 1996). The effects of experimental compounds were tested in the cultures at 8 days in vitro. Exposure to NMDA (600 μM, 1 h) and other compounds was performed in an humidified incubator (5% CO2, 8% O2) at 37° C. in anti-oxidant free medium with compounds under evaluation being added 30 min prior to NMDA. For these conditions the culture medium was modified by omitting the following components: D,L- -tocopherol, D,L- -tocopherol acetate, catalase, superoxide dismutase and L-glutamine. Other details are described in Larm et al. (1996). Absorbence was read at 570 nm using a Ceres UV900 microplate reader. Control cultures were included in each experiment containing either vehicle alone or vehicle plus compound. […]

[2] = tested on: cultured cerebellar granule cells; test: Veratridine induced toxicity in neuronal cultures (MTT assay); conditions: Mus musculus
[3] = target: NMDA/polyamine sites (polyamine-sensitive [3H]-ifenprodil binding, rat cerebral cortex membranes) (Rattus norvegicus, UniProt P35439+Q00960); test: NMDA/polyamine site [3H]-ifenprodil binding assay; conditions: [3H]-ifenprodil 4 nM, rat cerebral cortex homogenate
Source text: Ifenprodil and eliprodil have been reported as antiischaemic agents (Gotti et al., 1988) and both compounds have been reported to associate with the polyamine sensitive site of the NMDA receptor complex (Carter et al., 1989 and 1990; Reynolds et al., 1989; and Robinson et al., 1990). […] These agents bind independently of the NMDA ion channel (Carter et al., 1991; Reynolds et al., 1989), appear not to cause behavioural effects (Carter et al., 1991), and may target specific heteromeric NMDA receptors (Williams, 1993; Nicola et al., 1994) uniquely distributed in forebrain regions (Standaert et al., 1994) affected in ischaemia and head trauma. […] Accordingly, compounds of the present invention are capable of binding to the NMDA receptor complex and providing a neuroprotective effect, or otherwise providing benefit in other conditions related to NMDA receptors.
Briefly, crude membrane suspensions containing 10% rat cerebral cortex were prepared in aqueous 50 mM Tris-HCl buffer (pH 7.4, 4° C.), using a Polytron homogeniser.
Nonspecific binding was determined using spermine (10 μM).
The sigma receptor ligand 3PPP(+)-3-(3-hydroxyphenyl)-N-propyl-piperidine (100 μM) was included in all tubes to block binding to sigma receptors. […] Filterpapers were collected, combined with scintillant and bound radioactivity determined using a Packard Scintillation counter.

NMDA/polyamine sites (polyamine-sensitive [3H]-ifenprodil binding, rat cerebral cortex membranes), sequence (Q00960 27-1482, other chains not shown): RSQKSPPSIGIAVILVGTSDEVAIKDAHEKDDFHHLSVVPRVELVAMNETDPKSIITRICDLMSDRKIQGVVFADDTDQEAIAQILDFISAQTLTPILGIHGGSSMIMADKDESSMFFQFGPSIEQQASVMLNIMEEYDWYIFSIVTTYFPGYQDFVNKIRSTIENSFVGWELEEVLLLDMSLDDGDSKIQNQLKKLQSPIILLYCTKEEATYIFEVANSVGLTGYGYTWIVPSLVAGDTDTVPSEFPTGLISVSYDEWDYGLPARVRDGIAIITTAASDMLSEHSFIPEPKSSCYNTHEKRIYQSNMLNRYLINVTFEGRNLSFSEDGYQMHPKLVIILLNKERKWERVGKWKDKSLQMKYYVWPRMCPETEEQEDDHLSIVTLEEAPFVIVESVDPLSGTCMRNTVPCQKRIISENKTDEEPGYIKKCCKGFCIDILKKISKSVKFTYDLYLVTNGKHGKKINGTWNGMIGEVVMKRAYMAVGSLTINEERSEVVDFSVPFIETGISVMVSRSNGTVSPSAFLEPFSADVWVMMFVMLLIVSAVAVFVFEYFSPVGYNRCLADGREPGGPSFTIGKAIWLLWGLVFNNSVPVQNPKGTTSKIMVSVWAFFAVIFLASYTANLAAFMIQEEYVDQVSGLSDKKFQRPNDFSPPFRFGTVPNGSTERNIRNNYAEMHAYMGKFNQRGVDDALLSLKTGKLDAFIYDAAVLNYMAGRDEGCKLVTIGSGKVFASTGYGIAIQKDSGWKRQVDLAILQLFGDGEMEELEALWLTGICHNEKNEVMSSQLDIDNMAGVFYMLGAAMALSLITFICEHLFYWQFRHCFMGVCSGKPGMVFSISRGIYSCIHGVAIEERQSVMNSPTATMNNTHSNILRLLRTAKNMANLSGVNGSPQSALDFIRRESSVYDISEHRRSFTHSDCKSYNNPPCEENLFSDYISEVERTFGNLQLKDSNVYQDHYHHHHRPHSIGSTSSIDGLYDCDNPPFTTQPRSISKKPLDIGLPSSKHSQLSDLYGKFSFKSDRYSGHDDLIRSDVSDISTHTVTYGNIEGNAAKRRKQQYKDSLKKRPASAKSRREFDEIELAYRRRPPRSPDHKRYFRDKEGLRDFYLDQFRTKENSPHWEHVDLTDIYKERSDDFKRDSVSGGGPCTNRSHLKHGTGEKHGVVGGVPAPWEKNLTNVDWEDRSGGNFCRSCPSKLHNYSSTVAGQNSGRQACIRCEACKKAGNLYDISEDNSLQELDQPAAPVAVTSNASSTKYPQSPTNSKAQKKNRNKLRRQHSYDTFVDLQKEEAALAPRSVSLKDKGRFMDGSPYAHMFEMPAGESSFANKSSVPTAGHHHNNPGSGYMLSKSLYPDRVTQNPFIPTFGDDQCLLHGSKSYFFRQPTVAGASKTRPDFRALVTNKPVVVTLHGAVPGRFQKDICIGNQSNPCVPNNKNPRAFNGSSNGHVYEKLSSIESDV

- IC50 ([3]; 2 h at 4° C., 3PPP 100 μM to block sigma sites): 4.33 ± 1.56 µM
- Ki ([3]; competition curves analysed with Radlig): 1.4 ± 0.047 µM
Structure (SMILES): OC(Cc1cc(N2CCCC2)nc(N2CCCC2)n1)c1cccc(OC(F)(F)F)c1 (stereo not shown) [Compound 17, 6-[2-hydroxy-2-(3-trifluoromethoxyphenyl)ethyl]-2,4-di-N-pyrrolidinylpyrimidine]
- EC50 [1]: 1.7 µM
- EC50 [2]: 1.7 µM
